Reference: the supplement of paper PMC11451515

Key:
Conditions in all cases: 48 h
[1] = test system: NOMO1; assay: cell viability relative to DMSO control; higher = less cytotoxic
Procedure, shortened: (§1)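 Viability is a per-plate percentage relative to DMSO wells, with cell-free wells as background. CellTiter-Glo One luminescence was read after 48 h at 37°C on 1536-well plates (5 μl) of NOMO1 or SEM (500 cells/well) or P12-Ichikawa (1000 cells/well) leukemia cells. The cells had been adapted for at least four passages in each medium and pin-dosed with library compounds in DMSO from 47 μM to 0.79 nM in 11 threefold steps.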

[2] = test system: P12-Ichikawa; assay: as above
Procedure, shortened: as §1

[3] = test system: SEM cells; assay: as above
Procedure, shortened: as §1

[4] = test system: NOMO1; assay: AUC of viability dose-response curve (% viability x log10 dose units); higher = less sensitive
Procedure, shortened: (§2)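 Seeding of medium-adapted leukemia cells was at 500 or 1000 cells/well in 1536-well plates, followed by 48 h at 37°C with library compounds in DMSO at 11 threefold doses from 47 μM to 0.79 nM. CellTiter-Glo One luminescence was normalised per plate to DMSO and cell-free wells and fitted as a four-parameter log-logistic function of log10 dose. Area under the curve was integrated by trapezoidal rule, with curves exceeding full viability scaled and curves failing quality control removed.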

[5] = test system: P12-Ichikawa; assay: as above
Procedure, shortened: as §2

[6] = test system: SEM cells; assay: as above
Procedure, shortened: as §2

NC1(Cc2ccc(Cl)cc2)CCN(c2ncnc3[nH]ccc23)CC1
cell viability [%]
Conditions | [1] | [2] | [3]
HPLM + 10% dialyzed FBS, 0.000781 µM | 97.7 | 105 | 103
HPLM + 10% dialyzed FBS, 0.00234 µM | 93.7 | 109 | 106
HPLM + 10% dialyzed FBS, 0.00702 µM | 89.9 | 105 | 96
HPLM + 10% dialyzed FBS, 0.0211 µM | 106 | 108 | 100
HPLM + 10% dialyzed FBS, 0.0632 µM | 92.9 | 106 | 92.8
HPLM + 10% dialyzed FBS, 0.19 µM | 105 | 103 | 91.6
HPLM + 10% dialyzed FBS, 0.569 µM | 116 | 102 | 95.7
HPLM + 10% dialyzed FBS, 1.71 µM | 81.9 | 94.7 | 75.7
HPLM + 10% dialyzed FBS, 5.12 µM | 82 | 82.3 | 66.9
HPLM + 10% dialyzed FBS, 15.4 µM | 45.6 | 65.8 | 6.62
HPLM + 10% dialyzed FBS, 46.1 µM | 29.4 | 48.3 | 2.55
RPMI 5 mM glucose + 10% FBS, 0.000781 µM | 106 | 101 | 107
RPMI 5 mM glucose + 10% FBS, 0.00234 µM | 102 | 99.4 | 117
RPMI 5 mM glucose + 10% FBS, 0.00702 µM | 88.3 | 101 | 118
RPMI 5 mM glucose + 10% FBS, 0.0211 µM | 101 | 99.7 | 116
RPMI 5 mM glucose + 10% FBS, 0.0632 µM | 97.4 | 91.9 | 112
RPMI 5 mM glucose + 10% FBS, 0.19 µM | 90.5 | 97.8 | 106
RPMI 5 mM glucose + 10% FBS, 0.569 µM | 85.5 | 84.7 | 86.1
RPMI 5 mM glucose + 10% FBS, 1.71 µM | 90.6 | 73.1 | 79.6
RPMI 5 mM glucose + 10% FBS, 5.12 µM | 74.5 | 53.7 | 59.8
RPMI 5 mM glucose + 10% FBS, 15.4 µM | 32.6 | 40.7 | 4.37
RPMI 5 mM glucose + 10% FBS, 46.1 µM | 16.3 | 28.5 | 2.8
RPMI 5 mM glucose + 10% dialyzed FBS, 0.000781 µM | 102 | 103 | 106
RPMI 5 mM glucose + 10% dialyzed FBS, 0.00234 µM | 92.8 | 103 | 98.6
RPMI 5 mM glucose + 10% dialyzed FBS, 0.00702 µM | 94.7 | 104 | 99.7
RPMI 5 mM glucose + 10% dialyzed FBS, 0.0211 µM | 90.2 | 102 | 92.7
RPMI 5 mM glucose + 10% dialyzed FBS, 0.0632 µM | 102 | 102 | 81.8
RPMI 5 mM glucose + 10% dialyzed FBS, 0.19 µM | 84.9 | 91.1 | 83.7
RPMI 5 mM glucose + 10% dialyzed FBS, 0.569 µM | 87.8 | 91 | 82.9
RPMI 5 mM glucose + 10% dialyzed FBS, 1.71 µM | 80.9 | 79.6 | 74.5
RPMI 5 mM glucose + 10% dialyzed FBS, 5.12 µM | 67.3 | 66.9 | 54.7
RPMI 5 mM glucose + 10% dialyzed FBS, 15.4 µM | 33 | 47 | 6.24
RPMI 5 mM glucose + 10% dialyzed FBS, 46.1 µM | 17.7 | 34.5 | 2.65

AUC of viability dose-response curve
Conditions | [4] | [5] | [6]
HPLM + 10% dialyzed FBS | 418 | 425 | 377
RPMI 5 mM glucose + 10% FBS | 395 | 384 | 357
RPMI 5 mM glucose + 10% dialyzed FBS | 381 | 393 | 352

C#Cc1cccc(Nc2ncnc3cc(OCCOC)c(OCCOC)cc23)c1
cell viability [%]
Conditions | [1] | [2] | [3]
HPLM + 10% dialyzed FBS, 0.000781 µM | 94.2 | 98.2 | 93.5
HPLM + 10% dialyzed FBS, 0.00234 µM | 104 | 101 | 95.7
HPLM + 10% dialyzed FBS, 0.00702 µM | 101 | 97.2 | 90.4
HPLM + 10% dialyzed FBS, 0.0211 µM | 83.7 | 89.3 | 95.2
HPLM + 10% dialyzed FBS, 0.0632 µM | 108 | 99.5 | 102
HPLM + 10% dialyzed FBS, 0.19 µM | 86 | 100 | 104
HPLM + 10% dialyzed FBS, 0.569 µM | 90.9 | 101 | 92.9
HPLM + 10% dialyzed FBS, 1.71 µM | 110 | 91.3 | 94.7
HPLM + 10% dialyzed FBS, 5.12 µM | 79.3 | 88.5 | 71.5
HPLM + 10% dialyzed FBS, 15.4 µM | 75.3 | 84.3 | 83
HPLM + 10% dialyzed FBS, 46.1 µM | 45.7 | 62 | 32.9
RPMI 5 mM glucose + 10% FBS, 0.000781 µM | 85.4 | 96.6 | 119
RPMI 5 mM glucose + 10% FBS, 0.00234 µM | 96.9 | 92.8 | 133
RPMI 5 mM glucose + 10% FBS, 0.00702 µM | 102 | 92.1 | 120
RPMI 5 mM glucose + 10% FBS, 0.0211 µM | 102 | 95.5 | 128
RPMI 5 mM glucose + 10% FBS, 0.0632 µM | 93.2 | 95.6 | 114
RPMI 5 mM glucose + 10% FBS, 0.19 µM | 91.8 | 92 | 119
RPMI 5 mM glucose + 10% FBS, 0.569 µM | 95 | 88.6 | 97.1
RPMI 5 mM glucose + 10% FBS, 1.71 µM | 93.7 | 88.4 | 115
RPMI 5 mM glucose + 10% FBS, 5.12 µM | 89.7 | 78.9 | 77.9
RPMI 5 mM glucose + 10% FBS, 15.4 µM | 85.1 | 83.6 | 107
RPMI 5 mM glucose + 10% FBS, 46.1 µM | 70.7 | 52.5 | 27.4
RPMI 5 mM glucose + 10% dialyzed FBS, 0.000781 µM | 92.2 | 96.5 | 86.8
RPMI 5 mM glucose + 10% dialyzed FBS, 0.00234 µM | 85.5 | 93.2 | 104
RPMI 5 mM glucose + 10% dialyzed FBS, 0.00702 µM | 88.9 | 95.5 | 90.5
RPMI 5 mM glucose + 10% dialyzed FBS, 0.0211 µM | 83.4 | 91.8 | 99.2
RPMI 5 mM glucose + 10% dialyzed FBS, 0.0632 µM | 86.6 | 96.4 | 90.2
RPMI 5 mM glucose + 10% dialyzed FBS, 0.19 µM | 83.8 | 93.3 | 93.6
RPMI 5 mM glucose + 10% dialyzed FBS, 0.569 µM | 85.4 | 86.8 | 87.5
RPMI 5 mM glucose + 10% dialyzed FBS, 1.71 µM | 89 | 80.2 | 77.9
RPMI 5 mM glucose + 10% dialyzed FBS, 5.12 µM | 77.6 | 83.3 | 59.7
RPMI 5 mM glucose + 10% dialyzed FBS, 15.4 µM | 84 | 78.7 | 68.6
RPMI 5 mM glucose + 10% dialyzed FBS, 46.1 µM | 50.2 | 56.6 | 19.9

AUC of viability dose-response curve
Conditions | [4] | [5] | [6]
HPLM + 10% dialyzed FBS | 433 | 445 | 425
RPMI 5 mM glucose + 10% FBS | 440 | 421 | 453
RPMI 5 mM glucose + 10% dialyzed FBS | 400 | 418 | 390

CC(C)n1nc(-c2cc3cc(O)ccc3[nH]2)c2c(N)ncnc21
cell viability [%]
Conditions | [1] | [2] | [3]
HPLM + 10% dialyzed FBS, 0.000781 µM | 79 | 109 | 93.3
HPLM + 10% dialyzed FBS, 0.00234 µM | 124 | 107 | 104
HPLM + 10% dialyzed FBS, 0.00702 µM | 110 | 112 | 111
HPLM + 10% dialyzed FBS, 0.0211 µM | 107 | 106 | 94.3
HPLM + 10% dialyzed FBS, 0.0632 µM | 99.7 | 99.4 | 81
HPLM + 10% dialyzed FBS, 0.19 µM | 94.7 | 90 | 84.4
HPLM + 10% dialyzed FBS, 0.569 µM | 65.7 | 73 | 45.2
HPLM + 10% dialyzed FBS, 1.71 µM | 61.6 | 72.7 | 52.9
HPLM + 10% dialyzed FBS, 5.12 µM | 44.7 | 64.9 | 25.9
HPLM + 10% dialyzed FBS, 15.4 µM | 31.2 | 47.4 | 16.7
HPLM + 10% dialyzed FBS, 46.1 µM | 27 | 36.8 | 6.97
RPMI 5 mM glucose + 10% FBS, 0.000781 µM | 96.2 | 100 | 106
RPMI 5 mM glucose + 10% FBS, 0.00234 µM | 113 | 109 | 107
RPMI 5 mM glucose + 10% FBS, 0.00702 µM | 104 | 110 | 114
RPMI 5 mM glucose + 10% FBS, 0.0211 µM | 105 | 95.3 | 136
RPMI 5 mM glucose + 10% FBS, 0.0632 µM | 104 | 92.8 | 108
RPMI 5 mM glucose + 10% FBS, 0.19 µM | 96.6 | 79.5 | 85.4
RPMI 5 mM glucose + 10% FBS, 0.569 µM | 88.1 | 66.5 | 66.3
RPMI 5 mM glucose + 10% FBS, 1.71 µM | 90.2 | 56.9 | 66
RPMI 5 mM glucose + 10% FBS, 5.12 µM | 71.8 | 52.5 | 38
RPMI 5 mM glucose + 10% FBS, 15.4 µM | 44.1 | 35.4 | 23.6
RPMI 5 mM glucose + 10% FBS, 46.1 µM | 23 | 17.5 | 8.3
RPMI 5 mM glucose + 10% dialyzed FBS, 0.000781 µM | 111 | 105 | 90.8
RPMI 5 mM glucose + 10% dialyzed FBS, 0.00234 µM | 110 | 116 | 99.4
RPMI 5 mM glucose + 10% dialyzed FBS, 0.00702 µM | 100 | 111 | 92.4
RPMI 5 mM glucose + 10% dialyzed FBS, 0.0211 µM | 101 | 118 | 87.7
RPMI 5 mM glucose + 10% dialyzed FBS, 0.0632 µM | 101 | 108 | 94.8
RPMI 5 mM glucose + 10% dialyzed FBS, 0.19 µM | 90.9 | 86.4 | 87.6
RPMI 5 mM glucose + 10% dialyzed FBS, 0.569 µM | 76.7 | 73.6 | 48.7
RPMI 5 mM glucose + 10% dialyzed FBS, 1.71 µM | 78 | 66.6 | 52.4
RPMI 5 mM glucose + 10% dialyzed FBS, 5.12 µM | 54.2 | 48.6 | 35.4
RPMI 5 mM glucose + 10% dialyzed FBS, 15.4 µM | 34.1 | 30.8 | 20.9
RPMI 5 mM glucose + 10% dialyzed FBS, 46.1 µM | 14.1 | 20.5 | 6.33

AUC of viability dose-response curve
Conditions | [4] | [5] | [6]
HPLM + 10% dialyzed FBS | 350 | 360 | 306
RPMI 5 mM glucose + 10% FBS | 399 | 332 | 327
RPMI 5 mM glucose + 10% dialyzed FBS | 355 | 341 | 317
